Results: paper PMC5923269, “The Ustilago maydis repetitive effector Rsp3 blocks the antifungal activity of mannose-binding maize proteins” (Nature Communications, 2018)

Biological target: T1, AFP1 (Anti-Fungal Protein 1; AFP1-His) (Zea mays, UniProt B4FUR2)
T1 construct: full-length with own signal peptide, secreted; C-terminal His tag; transient expression in Nicotiana benthamiana, NTA-purified from apoplastic fluid; two DUF26 domains
T1 sequence (B4FUR2 26-268): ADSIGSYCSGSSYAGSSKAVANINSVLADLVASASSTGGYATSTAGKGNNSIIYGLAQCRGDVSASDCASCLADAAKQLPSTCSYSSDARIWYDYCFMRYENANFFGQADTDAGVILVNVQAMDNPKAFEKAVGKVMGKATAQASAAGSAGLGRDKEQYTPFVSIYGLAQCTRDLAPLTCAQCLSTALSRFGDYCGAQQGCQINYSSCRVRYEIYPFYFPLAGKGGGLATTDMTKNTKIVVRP
Experiment: pull-down on mannose-agarose beads, anti-His western blot
Assay type: binding
Conditions: mannose immobilised on agarose; 10 mM Tris-HCl pH 7.5, 20 mM CaCl2, 1 M NaCl, 0.05% Tween-20, 4 °C, 1 h

For OC[C@H]1OC(O)[C@@H](O)[C@@H](O)[C@@H]1O (stereo partly shown) [mannose], the “pull-down on mannose-agarose beads, anti-His western blot” value was “strong binding was observed for wild type AFP1-His”.
